# Laboratory results published in PubChem BioAssay (NCI).
#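 Exposure lasted 48 hours, with cells grown in 96-well plates and compounds tested at five concentrations. At the TGI there is no net growth.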
# Assays:
# Assay in all cases: DTP human tumour cell line panel, 48 h
# [1] = system: SK-MEL-5 melanoma
# [2] = system: SF-295 CNS
# [3] = system: OVCAR-4 ovarian
# [4] = system: SW-620 colon
# [5] = system: HOP-92 NSCLC
# [6] = system: SNB-75 CNS
# [7] = system: MDA-MB-231 breast
# [8] = system: COLO 205 colon
# [9] = system: HCT-15 colon
# [10] = system: OVCAR-5 ovarian
# [11] = system: CCRF-CEM leukemia
# [12] = system: HCC-2998 colon
# [13] = system: KM12 colon
# [14] = system: HCT-116 colon
# [15] = system: SN12C renal
# [16] = system: SNB-19 CNS
# [17] = system: U251 CNS
# [18] = system: RPMI-8226 leukemia
# [19] = system: M14 melanoma
# [20] = system: MCF7 breast
# [21] = system: MOLT-4 leukemia
# [22] = system: UACC-257 melanoma
# [23] = system: SK-MEL-28 melanoma
# [24] = system: MDA-N
# [25] = system: EKVX NSCLC
# [26] = system: HS 578T breast
# [27] = system: A498 renal
# [28] = system: NCI-H522 lung
# [29] = system: PC-3 prostate
# [30] = system: SK-MEL-2 melanoma
# [31] = system: MDA-MB-435
# [32] = system: OVCAR-8 ovarian
# [33] = system: HT29 colon
# [34] = system: UO-31 renal
# [35] = system: SK-OV-3 ovarian
# [36] = system: A549 NSCLC
# [37] = system: OVCAR-3 ovarian
# [38] = system: NCI/ADR-RES ovarian
# [39] = system: BT-549 breast
# [40] = system: HOP-62 NSCLC
# [41] = system: SF-268 CNS
# [42] = system: LOX IMVI melanoma
# [43] = system: UACC-62 melanoma
# [44] = system: MALME-3M melanoma
# [45] = system: CAKI-1 renal
# [46] = system: NCI-H226 lung
# [47] = system: SF-539 CNS
# [48] = system: NCI-H23 lung
# [49] = system: DU-145 prostate
# [50] = system: ACHN renal
# [51] = system: TK-10 renal
# [52] = system: K-562 leukemia
# [53] = system: 786-0 renal
# [54] = system: RXF 393 renal
# [55] = system: IGROV1 ovarian
# [56] = system: T-47D breast
# [57] = system: NCI-H460 lung
smiles,measurement,setting,value
C=C1C(=O)O[C@@H]2[C@H]1C[C@@H](O)[C@H](C)[C@@](O)(C(=O)/C=C/C)[C@H]2OC(=O)C(C)CC (some centres not stated),TGI,[1],21.3 µM
same,TGI,[2],> 100 µM
same,TGI,[3],22.8 µM
same,TGI,[4],6.65 µM
same,TGI,[5],9.83 µM
same,TGI,[6],51.6 µM
same,TGI,[7],19.6 µM
same,TGI,[8],3.33 µM
same,TGI,[9],7.97 µM
same,TGI,[10],14.5 µM
same,TGI,[11],0.229 µM
same,TGI,[12],> 67.4 µM
same,TGI,[13],33.1 µM
same,TGI,[14],3.58 µM
same,TGI,[15],7.51 µM
same,TGI,[16],> 68.8 µM
same,TGI,[17],26.6 µM
same,TGI,[18],18.2 µM
same,TGI,[19],9.03 µM
same,TGI,[20],24.9 µM
same,TGI,[21],> 36.9 µM
same,TGI,[22],> 39.4 µM
same,TGI,[23],24.2 µM
same,TGI,[24],10.3 µM
same,TGI,[25],27.3 µM
same,TGI,[26],6.34 µM
same,TGI,[27],37.7 µM
same,TGI,[28],3.42 µM
same,TGI,[29],51.5 µM
same,TGI,[30],84.1 µM
same,TGI,[31],11.1 µM
same,TGI,[32],6.4 µM
same,TGI,[33],5.21 µM
same,TGI,[34],4.06 µM
same,TGI,[35],> 100 µM
same,TGI,[36],33 µM
same,TGI,[37],10.4 µM
same,TGI,[38],> 67.2 µM
same,TGI,[39],13.3 µM
same,TGI,[40],49.2 µM
same,TGI,[41],> 54 µM
same,TGI,[42],12.3 µM
same,TGI,[43],32.9 µM
same,TGI,[44],4.42 µM
same,TGI,[45],2.91 µM
same,TGI,[46],> 100 µM
same,TGI,[47],15.8 µM
same,TGI,[48],18.2 µM
same,TGI,[49],22.8 µM
same,TGI,[50],9.89 µM
same,TGI,[51],16.7 µM
same,TGI,[52],23.6 µM
same,TGI,[53],6.91 µM
same,TGI,[54],5.36 µM
same,TGI,[55],12.8 µM
same,TGI,[56],71.8 µM
same,TGI,[57],> 100 µM
